Patent publication US20260207618A1, “PYRIMIDINE CARBOXAMIDE COMPOUNDS” (Acrivon Therapeutics, Inc., priority 2022, published 2026)

Experiments:
[1] = molecular target: T1, recombinant human Wee1A kinase (Homo sapiens, UniProt P30291); experiment: LanthaScreen Europium (Eu) Kinase Binding Assay, Wee1A kinase (TR-FRET tracer displacement); conditions: 30 nM tracer 178, 5 nM Wee1A kinase, 60 minutes at room temperature
T1 construct: full length Wee1A kinase was expressed by baculovirus in insect cells; purchased Invitrogen PV3817; host or cells: insect cells (baculovirus)
T1 sequence (P30291 whole entry): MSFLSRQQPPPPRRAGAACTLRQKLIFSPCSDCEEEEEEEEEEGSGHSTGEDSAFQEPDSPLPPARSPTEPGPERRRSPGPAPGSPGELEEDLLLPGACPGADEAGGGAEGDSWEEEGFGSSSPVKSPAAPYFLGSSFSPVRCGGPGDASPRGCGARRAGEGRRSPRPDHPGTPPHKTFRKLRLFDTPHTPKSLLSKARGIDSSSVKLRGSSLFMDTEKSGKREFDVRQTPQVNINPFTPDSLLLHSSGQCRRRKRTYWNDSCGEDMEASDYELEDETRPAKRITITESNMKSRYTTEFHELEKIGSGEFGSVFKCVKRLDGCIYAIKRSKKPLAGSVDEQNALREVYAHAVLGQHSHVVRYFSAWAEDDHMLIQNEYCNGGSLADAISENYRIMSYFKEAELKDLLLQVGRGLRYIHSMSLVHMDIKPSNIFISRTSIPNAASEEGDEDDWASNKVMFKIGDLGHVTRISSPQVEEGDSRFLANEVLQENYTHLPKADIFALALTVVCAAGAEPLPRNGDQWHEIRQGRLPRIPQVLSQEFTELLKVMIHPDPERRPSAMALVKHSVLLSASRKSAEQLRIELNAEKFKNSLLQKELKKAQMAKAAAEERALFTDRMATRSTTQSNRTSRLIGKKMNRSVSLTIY
Excerpt: We used a LanthaScreen Europium (Eu) Kinase Binding Assay to determine the binding of provided compounds to Wee1A kinase. The assay utilizes an Alexa Fluor 647-labeled ATP competitive kinase tracer that binds to the ATP binding site of a GST-tagged Wee1A kinase, while a europium (Eu) labeled antibody binds to the GST tag. The proximity of fluorescently labeled kinase tracer and europium (Eu) donor fluorophore antibody leads to fluorescence resonance energy transfer (FRET) to the fluorescence label (acceptor) upon excitation of the Eu (donor). Displacement of tracer from the ATP-binding site by a test compound disturbs the proximity between both labels thus lowering the FRET.
This time resolved-FRET binding assay was performed in white 384-well low volume plates (Greiner, cat #784075), at room temperature in kinase buffer A (KBA; Invitrogen cat #PV3189), consisting of 50 mM HEPES-NaOH (pH 7.5), 0.01% Brij-35, 10 mM MgCl2, and 1 mM EGTA. 5 μl of compound (diluted in reaction buffer, to 1% DMSO) were added to various wells in the plate, followed by 5 μl each of recombinant human Wee1A kinase (full length Wee1A kinase was expressed by baculovirus in insect cells using a N-terminal GST tag (MW: 99.1 kDa) (Invitrogen cat #PV3817) and LanthaScreen Eu-anti-GST antibody (Invitrogen, cat #PV5594). After this, 5 μl of kinase tracer 178 (Invitrogen, cat #PV5593) was added to the plate and the plate was incubated for 60 minutes at room temperature. The final assay conditions in each well were: 30 nM tracer 178, 5 nM Wee1A kinase and 2 nM Eu-labeled antibody in total assay volume of 15 μl. An Envision 2104 (Perkin-Elmer) Plate Reader with the following time-resolve fluorescence setting was used for performing LanthaScreen kinase binding assay. • Excitation 320 nm (30 nm bandpass) • Kinase Tracer Emission 665 nm (10 nm bandpass) • LanthaScreen Eu-anti-Tag Antibody Emission 615 nm (10 nm bandpass) • Dichroic Mirror Instrument dependent • Delay Time 100 μs • Integration Time 200 μs
To calculate the emission ratio, the acceptor/tracer emission ([…]) was divided by the antibody/donor emission ([…]) and the average of duplicate measurement was used for calculations. Data plotting, analysis of binding, and curve fitting was done using Excel add-in XLfit version 5.5.0.5 (IDBS, Guildford, United Kingdom).

[2] = test system: Cdk1 phosphorylated on tyrosine 15; experiment: High-content imaging of pCdk1 Y15 by immunofluorescence in ACHN cells; format: cell-based; conditions: Homo sapiens, high-content imaging (IF), 4 h, 7 to 5000 nM, read-out: CDK1 Tyr15 Phosphorylation EC50 (IC50)
Description: ACHN renal cell carcinoma cell line (ATCC) was cultured in Minimum Essential Medium Eagle supplemented with 10% fetal calf serum (Sigma), 1% Penicillin-Streptomycin and 10 mM HEPES buffer (HyClone). Cell cultures were kept in a humidified incubator at 37° C. and 5% CO2. Cells were routinely tested for Mycoplasma contamination.
High-content imaging of ACHN renal cell carcinoma cells was used for quantification of CDK1 phosphorylated on tyrosine 15 by immunofluorescence (“IF”). 20 000 cells per well were seeded in tissue culture treated 96 well plates and treated with compounds at concentrations ranging from 7 to 5000 nM for 4 h. Cells were fixated for 15 minutes in 4% paraformaldehyde solution, washed in PBS and permeabilized using 0.2% Triton X-100. Blocking was performed for 1 h at RT using Blocker FL Fluorescent Blocking Buffer (Thermo Scientific), thereafter cells were incubated with primary antibody (rabbit anti-pCDK1 Y^15, #4539, Cell Signaling Technology) at 4° C. ON. Alexa Fluor Plus 647 labelled goat anti-rabbit (A32733. Thermo Scientific) was used as secondary antibody. After washing in PBS, nuclei were stained with DAPI solution for 10 min at RT, protected from light. Cells were imaged using an ImageXpress Pico automated imaging system and CellReporter Xpress software (Molecular Devices). The percentage cells with nuclear positivity for pCdk1 Y^15 compared to DMSO control was determined for each well and drug dose response curves and EC50 values were calculated and visualized using GraphPad Prism.

IC50 [1] [nM]	EC50 [2] [nM]	Structure (SMILES)
≤ 10	≤ 100	COc1nc(Nc2ccc(C3CCN(C)CC3)c(C)c2)ncc1C(=O)Nc1c(C)ccc(O)c1C [Compound 142, N-(3-hydroxy-2,6-dimethylphenyl)-4-methoxy-2-((3-methyl-4-(1-methylpiperidin-4-yl)phenyl)amino)pyrimidine-5-carboxamide]
≤ 10	100 to 500	COc1nc(Nc2ccc(O[C@@H]3CCN(C)C3)c(C)c2)ncc1C(=O)Nc1c(Cl)cccc1Br [Compound 211]
≤ 10	> 1000	COc1nc(Nc2ccc(C3CCN(C)CC3)c(C)c2)ncc1C(=O)Nc1cc(O)ccc1Cl [Compound 138, N-(2-chloro-5-hydroxyphenyl)-4-methoxy-2-((3-methyl-4-(1-methylpiperidin-4-yl)phenyl)amino)pyrimidine-5-carboxamide]
≤ 10	100 to 500	COc1nc(Nc2ccc(C3CCN(C)CC3)c(C)c2)ncc1C(=O)Nc1c(Br)cccc1C#N [Compound 134, N-(2-bromo-6-cyanophenyl)-4-methoxy-2-((3-methyl-4-(1-methylpiperidin-4-yl)phenyl)amino)pyrimidine-5-carboxamide]
≤ 10	100 to 500	COc1nc(Nc2ccc3c(cnn3C3CCN(C)CC3)c2)ncc1C(=O)Nc1c(Cl)cccc1Cl [Compound 166]
≤ 10	100 to 500	COc1nc(Nc2ccc(C3CCN(C)CC3)c(C)c2)ncc1C(=O)Nc1c(C)cccc1Br [Compound 108, N-(2-bromo-6-methylphenyl)-4-methoxy-2-((3-methyl-4-(1-methylpiperidin-4-yl)phenyl)amino)pyrimidine-5-carboxamide]
≤ 10	≤ 100	COc1nc(Nc2ccc(O[C@@H]3CCN(C)C3)c(C)c2)ncc1C(=O)Nc1c(Cl)cccc1Cl [Compound 146, (R)—N-(2,6-dichlorophenyl)-4-methoxy-2-((3-methyl-4-((1-methylpyrrolidin-3-yl)oxy)phenyl)amino)pyrimidine-5-carboxamide]
≤ 10	100 to 500	CCc1cccc(Cl)c1NC(=O)c1cnc(Nc2ccc(C3CCN(C)CC3)c(C)c2)nc1OC [Compound 132, N-(2-chloro-6-ethylphenyl)-4-methoxy-2-((3-methyl-4-(1-methylpiperidin-4-yl)phenyl)amino)pyrimidine-5-carboxamide]
≤ 10	100 to 500	COc1nc(Nc2cnn([C@H]3CCCN(C)CC3)c2)ncc1C(=O)Nc1c(Cl)cccc1Cl [Compound 189, N-2,6-dichlorophenyl-2-{1-[(S)-1-methyl-4-azepanyl]-4-pyrazolylamino}-4-methoxy-5-pyrimidinecarboxamide]
≤ 10	100 to 500	CCOc1nc(Nc2ccc(OC3CCNCC3)c(C)c2)ncc1C(=O)Nc1c(Cl)cccc1Br [Compound 221]
≤ 10	100 to 500	COc1nc(Nc2ccc(C3CCN(C)CC3)c(C)c2)ncc1C(=O)Nc1c(F)ccc(F)c1Cl [Compound 128, N-(2-chloro-3,6-difluorophenyl)-4-methoxy-2-((3-methyl-4-(1-methylpiperidin-4-yl)phenyl)amino)pyrimidine-5-carboxamide]
≤ 10	100 to 500	COc1nc(Nc2ccc(N3CCCNCC3)cc2)ncc1C(=O)Nc1c(Cl)cccc1Br [Compound 207, 2-((4-(1,4-diazepan-1-yl)phenyl)amino)-N-(2-bromo-6-chlorophenyl)-4-methoxypyrimidine-5-carboxamide]
≤ 10	100 to 500	COc1nc(Nc2cc(C)c(N3CCC(N(C)C)CC3)c(F)c2)ncc1C(=O)Nc1c(Cl)cccc1Br [Compound 214]
≤ 10	> 1000	COc1nc(Nc2ccc(C3CCN(C)CC3)c(C)c2)ncc1C(=O)Nc1c(C)cccc1C(F)(F)F [Compound 120, 4-methoxy-2-((3-methyl-4-(1-methylpiperidin-4-yl)phenyl)amino)-N-(2-methyl-6-(trifluoromethyl)phenyl)pyrimidine-5-carboxamide]
≤ 10	> 1000	CCOc1nc(Nc2cnn([C@H](C)CN(C)C)c2)ncc1C(=O)Nc1c(Cl)cccc1Br [Compound 204]
≤ 10	100 to 500	C#Cc1cccc(Br)c1NC(=O)c1cnc(Nc2ccc(C3CCNCC3)c(C)c2)nc1OC [Compound 184, N-(2-bromo-6-ethynylphenyl)-4-methoxy-2-((3-methyl-4-(piperidin-4-yl)phenyl)amino)pyrimidine-5-carboxamide]
≤ 10	100 to 500	COc1nc(Nc2ccc(N3CCN(C)CC3)c(C)c2)ncc1C(=O)Nc1c(Cl)cccc1Cl [Compound 161]
≤ 10	100 to 500	COc1nc(Nc2ccc(OC3CCN(C)CC3)c(C)c2)ncc1C(=O)Nc1c(Cl)cccc1Cl [Compound 145, N-(2,6-dichlorophenyl)-4-methoxy-2-((3-methyl-4-((1-methylpiperidin-4-yl)oxy)phenyl)amino)pyrimidine-5-carboxamide]
≤ 10	100 to 500	CCCOc1cc(Nc2ncc(C(=O)Nc3c(Cl)cccc3Br)c(OC)n2)ccc1C1CCN(C)CC1 [Compound 218, N-(2-bromo-6-chlorophenyl)-4-methoxy-2-((4-(1-methylpiperidin-4-yl)-3-propoxyphenyl)amino)pyrimidine-5-carboxamide]
10 to 100	> 1000	CN1CCN(c2ccc(Nc3ncc(C(=O)Nc4c(Cl)cccc4Cl)c(OCCO)n3)cc2)CC1 [Compound 123, N-(2,6-dichlorophenyl)-4-(2-hydroxyethoxy)-2-((4-(4-methylpiperazin-1-yl)phenyl)amino)pyrimidine-5-carboxamide]
≤ 10	> 1000	COc1nc(Nc2cnn(C[C@@H]3CCNC3)c2)ncc1C(=O)Nc1c(Cl)cccc1Cl [Compound 164]
≤ 10	100 to 500	COc1nc(Nc2ccc([C@@H]3CCCNC3)c(C)c2)ncc1C(=O)Nc1c(Cl)cccc1Br [Compound 199, (S)—N-(2-bromo-6-chlorophenyl)-4-methoxy-2-((3-methyl-4-(piperidin-3-yl)phenyl)amino)pyrimidine-5-carboxamide]
10 to 100	> 1000	COc1nc(Nc2ccc(C3CCN(C)CC3)c(C)c2)ncc1C(=O)Nc1ccccc1 [Compound 101, 4-methoxy-2-((3-methyl-4-(1-methylpiperidin-4-yl)phenyl)amino)-N-phenylpyrimidine-5-carboxamide]
≤ 10	100 to 500	COc1nc(Nc2ccc(N3CCC4(CCN(C)CC4)CC3)cc2)ncc1C(=O)Nc1c(Cl)cccc1Br [Compound 209, N-(2-bromo-6-chlorophenyl)-4-methoxy-2-{p-(9-methyl-3,9-diaza-3-spiro[5.5]undecyl)phenylamino}-5-pyrimidinecarboxamide]
≤ 10	> 1000	CCOc1nc(Nc2cnn([C@@H](C)CN(C)C)c2)ncc1C(=O)Nc1c(Cl)cccc1Br [Compound 202, N-(2-bromo-6-chlorophenyl)-2-{1-[(S)-2-(dimethylamino)-1-methylethyl]-4-pyrazolylamino}-4-ethoxy-5-pyrimidinecarboxamide]
≤ 10	100 to 500	CCOc1nc(Nc2ccc(OC3CCN(C)CC3)c(C)c2)ncc1C(=O)Nc1c(Cl)cccc1Br [Compound 222]
